Experiments:
5-lipoxygenase = target: T1, 5-lipoxygenase (Rattus norvegicus, UniProt P12527); assay: Inhibition of 5-lipoxygenase, in vitro (5-HETE synthesis, RBL-1 homogenate supernatant); assay type: biochemical; settings: RBL-1 100,000×g supernatant, [1-14C]-arachidonic acid and Ca++, 5-HETE by TLC; initial screen 1×10^-4 M
T1 construct: supernatant fraction of Rat Basophilic Leukemia Cell Homogenate (RBL-1) serves as a 5-lipoxygenase enzyme source; endogenous in cells; host or cells: RBL-1 (rat basophilic leukemia) cells, 100,000×g supernatant of homogenate
T1 sequence (P12527 1-673): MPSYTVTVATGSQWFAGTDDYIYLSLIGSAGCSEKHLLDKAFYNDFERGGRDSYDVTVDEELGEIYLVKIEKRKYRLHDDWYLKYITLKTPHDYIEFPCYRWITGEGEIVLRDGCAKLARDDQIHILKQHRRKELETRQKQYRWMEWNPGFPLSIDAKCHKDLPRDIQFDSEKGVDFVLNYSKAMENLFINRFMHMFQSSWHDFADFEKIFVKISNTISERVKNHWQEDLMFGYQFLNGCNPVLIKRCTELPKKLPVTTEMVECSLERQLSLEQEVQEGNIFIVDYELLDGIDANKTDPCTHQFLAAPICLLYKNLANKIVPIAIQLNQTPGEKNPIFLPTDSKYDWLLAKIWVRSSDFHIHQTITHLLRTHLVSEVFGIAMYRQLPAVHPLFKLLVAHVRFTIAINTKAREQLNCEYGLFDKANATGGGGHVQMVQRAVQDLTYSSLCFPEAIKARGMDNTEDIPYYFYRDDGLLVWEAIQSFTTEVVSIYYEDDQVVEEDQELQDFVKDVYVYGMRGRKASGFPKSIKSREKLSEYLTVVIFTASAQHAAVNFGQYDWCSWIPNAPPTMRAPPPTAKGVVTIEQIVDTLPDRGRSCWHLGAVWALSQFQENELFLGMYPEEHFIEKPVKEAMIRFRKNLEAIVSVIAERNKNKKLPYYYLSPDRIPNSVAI
Procedure: The compounds of the invention are evaluated with respect to 5-lipoxygenaseinhibition according to the following assay procedure.
Inhibition of 5-lipoxygenase, in vitro: anti-inflammatory, anti-allergy activities. The 100,000×g supernatant fraction of Rat Basophilic Leukemia Cell Homogenate (RBL-1) serves as a 5-lipoxygenase enzyme source. The enzyme is incubated with [1-^14 C)-arachidonic acid and Ca++ in the presence and absence of test compound. The product of 5-lipoxygenase, 5-hydroxyeicosatetraenoic acid (5-HETE), is separated by thin-layer chromatography and measured by radioactivity. A compound inhibiting 5-HETE synthesis by 30% or more is considered active at that concentration.

[1] = versus histamine; cited from earlier work

CC(C)Sc1cc(C(C)(C)C)c(O)c(C(C)(C)C)c1 [Example 4, 2,6-bis(1,1-dimethylethyl)-4-[(1-methylethyl)thio]-phenol]
IC50 (5-lipoxygenase): 1.3 µM

CSc1cc(C(C)(C)C)c(O)c(C(C)(C)C)c1 [Example 5, 2,6-bis(1,1-dimethylethyl)-4-(methylthio)phenol]
IC50 (5-lipoxygenase): 0.58 µM

CC(C)(C)c1cc(S(C)(=O)=O)cc(C(C)(C)C)c1O [Example 7, 2,6-bis(1,1-dimethylethyl)-4-(methylsulfonyl)phenol]
5-Lipoxygenase Inhibition, in vitro, IC50 (5-lipoxygenase): Inactive

CSc1c(O)c(C(C)(C)C)cc(C(C)(C)C)c1O [Example 9, 4,6-bis(1,1-dimethylethyl)-2-(methylthio)-1,3-benzenediol]
IC50 (5-lipoxygenase): 11 µM

COc1c(C(C)(C)C)cc(SC)cc1C(C)(C)C [Example 8, 2,6-bis(1,1-dimethylethyl)-1-methoxy-4-(methylthio)benzene]
IC50 (5-lipoxygenase): 100 µM

C[S+]([O-])c1cc(C(C)(C)C)c(O)c(C(C)(C)C)c1 (centres unmarked) [Example 6, 2,6-bis(1,1-dimethylethyl)-4-(methylsulfinyl)phenol]
IC50 (5-lipoxygenase): 100 µM

CCCCC/C=C\C\C=C/C=C/C=C/[C@@H](SC[C@H](NC(=O)CC[C@H](N)C(=O)O)C(=O)NCC(=O)O)[C@@H](O)CCCC(=O)O [LTC4]
potency relative to histamine in causing long lasting bronchoconstricting effects [1]: at least 100 times

CCCCCSc1cc(C(C)(C)C)c(O)c(C(C)(C)C)c1 [Example 3, 2,6-bis(1,1-dimethylethyl)-4-(pentylthio)phenol]
IC50 (5-lipoxygenase): 1.2 µM

From patent US4835190A, “Phenolic thioethers as inhbitors of 5-lipoxygenase” (G. D. Searle & Co., priority 1987, dated 1989)
